Reference: patent US10988474B2, “Compounds acting at multiple prostaglandin receptors giving a general anti-inflammatory response” (ALLERGAN, INC., priority 2011, dated 2021)

Legend:
Assay type in all cases: cell-based
[1] = target: T1, human prostanoid FP receptor (Homo sapiens, UniProt P43088); test: FLIPR Ca2+ signaling PG antagonist assay, FP stable cell line; conditions: HEK-293 EBNA cells, human recombinant FP, no exogenous G-protein; standard agonist 17-phenyl-PGF2α
T1 construct: expressed in transfected cells
Protocol: (§1) The above compounds were tested for PG antagonist activity as follows using human recombinant prostanoid receptor (DP1, EP1-4, FP, IP and TP) stable cell lines: In order to measure the response of Gs and Gi coupled prostanoid receptors as a Ca^2+ signal, chimeric G protein cDNAs were used. Stable cell lines over-expressing human prostanoid DP1, EP1-4, FP, IP, and TP receptors were established as follows:
(§2) Briefly, human prostanoid DP1, EP2, and EP4 receptor cDNAs were co-transfected with chimeric Gqs cDNA containing a haemagglutanin (HA) epitope; human prostanoid EP3 receptors were co-transfected with chimeric Gqi-HA; human EP1, FP, IP, and TP receptor cDNAs were expressed with no exogenous G-proteins. Gqs and Gqi chimeric cDNAs (Molecular Devices, Sunnyvale, Calif., U.S.A.), as well as cDNAs of prostanoid receptors, were cloned into a pCEP4 vector with a hygromycin B selection marker. Transfection into HEK-293 EBNA (Epstein-Barr virus nuclear antigen) cells was achieved by the FuGENE 6 transfection Reagent (Roche Applied Science, Indianapolis, Ind., USA). Stable transfectants were selected according to hygromycin resistance. Because Gqs and Gqi contained an HA epitope, G-protein expression was detected by Western blotting analysis using anti-mouse HA monoclonal antibody and horseradish peroxidase (HRP)-conjugated secondary antibody, while functional expression of prostanoid receptors was detected by FLIPR screening (Matias et al., 2004). These stable cell lines were validated using previously published antagonists at 10 μM against serial dilutions of standard agonists by FLIPR functional assays for Ca^2+ Signaling (as described below).
(§3) Ca^2+ signaling studies were performed using a FLIPR TETRA system (Molecular Devices, Sunnyvale, Calif., USA) in the 384-format. This is a high-throughput instrument for cell-based assays to monitor Ca^2+ signaling associated with GPCRs and ion channels. Cells were seeded at a density of 5×10^4 cells/well in BioCoat poly-D-lysine coated, black wall, clear bottom 384-well plates (BD Biosciences, Franklin lakes, NJ, USA) and allowed to attach overnight in an incubator at 37° C. The cells were then washed twice with HBSS-HEPES buffer (Hanks' balanced salt solution without bicarbonate and phenol red, 20 mM HEPES, pH 7.4) using an ELx405 Select CW Microplate Washer (BioTek, Winooski, Vt., USA). After 60 min of dye-loading in the dark using the Ca^2+-sensitive dye Fluo-4AM (Invitrogen, Carlsbad, Calif., USA), at a final concentration of 2×10^−6M, the plates were washed 4 times with HBSS-HEPES buffer to remove excess dye and leaving 50 μl of buffer in each well. The plates were then placed in the FLIPR TETRA instrument and allowed to equilibrate at 37° C. Compounds were added in a 25 μl volume to each well to give final concentrations of 0.1 μM, 0.3 μM, 1 μM, 3 μM, 10 μM, and 30 μM; or 0.067 μM, 0.1 μM, 0.2 μM, 0.3 μM, 0.67 μM, and 1 μM for cells over-expressing TP receptors. After 4.5 minutes, a 7-point serial dilution of the standard agonist for the corresponding receptor, in a 25 μl volume was injected at the final concentrations from 10^−11M to 10^−5M in 10-fold serial dilution increments for cells expressing human recombinant DP1, EP1, EP2, EP3, EP4, FP, and IP receptors. The dose range for the standard agonist for human recombinant TP receptors was from 10^−12M to 10^−6M. HBSS-HEPES buffer was used as the negative control for the standard agonists. Cells were excited with LED (light emitting diode) excitation at 470-495 nm and emission was measured through an emission filter at 515-575 nm. Assay plates were read for 3.5 minutes using the FLIPR^TETRA. The peak increase in fluorescence intensity was recorded for each well. On each plate, negative controls, dose response of positive controls, and co-treatments of antagonist-agonist for each dose were in triplicates. Standard agonists were as follows: DP=BW 245C, EP1-EP4=PGE2, FP=17-phenyl-PGF2α, IP=Cicaprost, and TP=U-46619. […]

[2] = target: T2, human prostanoid DP1 receptor (Homo sapiens, UniProt Q13258); test: FLIPR Ca2+ signaling PG antagonist assay, DP1 stable cell line; conditions: HEK-293 EBNA cells, human recombinant DP1 with chimeric Gqs; standard agonist BW 245C; read-out: DP (Kb, PG antagonist activity)
T2 construct: expressed in transfected cells
T2 sequence (Q13258 1-359): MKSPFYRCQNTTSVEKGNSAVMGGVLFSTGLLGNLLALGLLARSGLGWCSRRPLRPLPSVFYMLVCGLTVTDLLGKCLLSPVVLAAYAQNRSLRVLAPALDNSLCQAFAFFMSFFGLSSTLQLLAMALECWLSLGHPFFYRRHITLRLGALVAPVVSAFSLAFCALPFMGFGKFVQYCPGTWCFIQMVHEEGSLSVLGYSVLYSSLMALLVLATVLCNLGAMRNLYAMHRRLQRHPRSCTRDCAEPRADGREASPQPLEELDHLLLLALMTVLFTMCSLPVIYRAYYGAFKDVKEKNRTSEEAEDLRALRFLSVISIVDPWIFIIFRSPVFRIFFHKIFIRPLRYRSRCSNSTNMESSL
Protocol: as §1, §2, §3

[3] = target: T3, human prostanoid EP1 receptor (Homo sapiens, UniProt P34995); test: FLIPR Ca2+ signaling PG antagonist assay, EP1 stable cell line; conditions: HEK-293 EBNA cells, human recombinant EP1, no exogenous G-protein; standard agonist PGE2
T3 construct: expressed in transfected cells
T3 sequence (P34995 1-402): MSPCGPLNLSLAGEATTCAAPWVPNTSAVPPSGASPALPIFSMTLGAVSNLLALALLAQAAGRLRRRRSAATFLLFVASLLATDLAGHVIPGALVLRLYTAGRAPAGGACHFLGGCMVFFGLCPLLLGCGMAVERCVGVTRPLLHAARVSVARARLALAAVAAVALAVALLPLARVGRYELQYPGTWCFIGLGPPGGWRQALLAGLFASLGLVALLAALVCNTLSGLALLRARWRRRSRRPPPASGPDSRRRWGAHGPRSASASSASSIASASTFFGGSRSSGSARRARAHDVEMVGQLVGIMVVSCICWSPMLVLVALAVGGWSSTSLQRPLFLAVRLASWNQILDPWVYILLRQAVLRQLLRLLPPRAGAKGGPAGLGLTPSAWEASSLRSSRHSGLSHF
Protocol: as §1, §2, §3

T1 sequence (P43088 whole entry): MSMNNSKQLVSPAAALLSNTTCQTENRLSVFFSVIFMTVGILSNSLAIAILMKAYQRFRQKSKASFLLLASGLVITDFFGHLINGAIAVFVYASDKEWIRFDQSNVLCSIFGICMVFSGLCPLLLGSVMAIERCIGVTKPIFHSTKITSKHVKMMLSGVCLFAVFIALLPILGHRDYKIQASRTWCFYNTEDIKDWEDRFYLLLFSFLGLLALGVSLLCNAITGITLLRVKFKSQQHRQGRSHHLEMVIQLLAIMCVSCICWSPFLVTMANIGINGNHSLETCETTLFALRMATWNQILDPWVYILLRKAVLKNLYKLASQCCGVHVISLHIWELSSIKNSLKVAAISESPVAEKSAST

With `CCC(CC)COc1ccc(Cl)cc1Cn1ccc2cc(C(=O)O)ccc21` [Example 1, 1-[5-Chloro-2-(2-Ethyl-Butoxy)-Benzyl]-1H-Indole-5-Carboxylic Acid] the Kb [1] was 560 nM, the Kb [2] was 2100 nM and the Kb [3] was 180 nM.
`CCC(CC)COc1ccc(Cl)cc1Cn1ncc2cc(C(=O)O)ccc21` [Example 2, 1-[5-Chloro-2-(2-Ethyl-Butoxy)-Benzyl]-1H-Indazole-5-Carboxylic ACID] was tested, and the Kb [1] was 160 nM, the Kb [2] was 1300 nM and the Kb [3] was 140 nM.
`CC(C)COc1ccc(Br)cc1Cn1ncc2cc(C(=O)O)ccc21` [Example 4] gave a Kb [1] of 20 nM, a Kb [2] of 700 nM and a Kb [3] of 6 nM.
`CCC(CC)COc1ccc(Cl)cc1Cn1ncc2ccc(C(=O)O)cc21` [Example 6] gave a Kb [1] of 2400 nM, a Kb [2] of 7100 nM and a Kb [3] of no less than 10000 nM.
For `CC(C)COc1ccc(Br)cc1Cn1ncc2c(C(=O)O)cccc21` [Example 7, 1-(5-Bromo-2-Isobutoxy-Benzyl)-1H-Indazole-4-Carboxylic Acid], the Kb [1] was 300 nM, the Kb [2] was 1900 nM and the Kb [3] was 45 nM.
With `O=C(O)c1ccc2c(cnn2Cc2cc(Cl)ccc2OCc2ccccc2)c1` [Example 8, 1-(2-Benzyloxy-5-Chloro-Benzyl)-1H-Indazole-5-Carboxylic Acid] the Kb [1] was 200 nM, the Kb [2] was 2600 nM and the Kb [3] was 220 nM.
For `O=C(O)c1ccc2c(cnn2Cc2cc(Cl)ccc2OCc2ccc(Cl)cc2)c1` [Example 9, 1-[5-Chloro-2-(4-Chloro-Benzyloxy)-Benzyl]-1H-Indazole-5-Carboxylic Acid], the Kb [1] was 20 nM, the Kb [2] was 1200 nM and the Kb [3] was 90 nM.
`O=C(O)c1ccc2c(cnn2Cc2cc(Cl)ccc2OCC2CCCC2)c1` [Example 10, 1-(5-Chloro-2-Cyclopentylmethoxy-Benzyl)-1H-Indazole-5-Carboxylic Acid] was tested, and the Kb [1] was 30 nM, the Kb [2] was 440 nM and the Kb [3] was 50 nM.
`O=C(O)c1ccc2c(cnn2Cc2cc(Cl)ccc2OCC2CC2)c1` [Example 11, 1-(5-Chloro-2-Cyclopropylmethoxy-Benzyl)-1H-Indazole-5-Carboxylic Acid] gave a Kb [1] of 120 nM, a Kb [2] of 900 nM and a Kb [3] of 120 nM.
In the case of `O=C(O)c1ccc2c(cnn2Cc2cc(Br)ccc2OCc2ccccc2)c1` [Example 12, 1-(2-Benzyloxy-5-Bromo-Benzyl)-1H-Indazole-5-Carboxylic Acid], the Kb [1] is reported as 120 nM, the Kb [2] is reported as 1600 nM and the Kb [3] is reported as 360 nM.
In the case of `O=C(O)c1ccc2c(cnn2Cc2cc(Br)ccc2OCc2ccc(Cl)cc2)c1` [Example 13, 1-[5-Bromo-2-(4-Chloro-Benzyloxy)-Benzyl]-1H-Indazole-5-Carboxylic Acid], the Kb [1] is reported as 20 nM, the Kb [2] is reported as 1200 nM and the Kb [3] is reported as 50 nM.
`O=C(O)c1ccc2c(cnn2Cc2cc(Br)ccc2OCC2CCCC2)c1` [Example 14, 1-(5-Bromo-2-Cyclopentylmethoxy-Benzyl)-1H-Indazole-5-Carboxylic Acid] was tested, and the Kb [1] was 30 nM, the Kb [2] was 600 nM and the Kb [3] was 20 nM.
`O=C(O)c1ccc2c(cnn2Cc2cc(Br)ccc2OCC2CC2)c1` [Example 15, 1-(5-Bromo-2-Cyclopropylmethoxy-Benzyl)-1H-Indazole-5-Carboxylic Acid] gave a Kb [1] of 130 nM, a Kb [2] of 1800 nM and a Kb [3] of 190 nM.
`CC(C)COc1ccc(Cl)cc1Cn1cc2cc(C(=O)O)ccc2n1` [Example 16, 2-(5-Chloro-2-Isobutoxy-Benzyl)-2H-Indazole-5-Carboxylic Acid] gave a Kb [1] of 3000 nM, a Kb [2] of 1500 nM and a Kb [3] of 90 nM.
In the case of `CC(C)COc1ccc(Br)cc1Cn1cc2cc(C(=O)O)ccc2n1` [Example 17, 2-(5-Bromo-2-Isobutoxy-Benzyl)-2H-Indazole-5-Carboxylic Acid], the Kb [1] is reported as 2300 nM, the Kb [2] is reported as 3500 nM and the Kb [3] is reported as 40 nM.
Molecule `CC(C)COc1ccc(C(F)(F)F)cc1Cn1ncc2cc(C(=O)O)ccc21` [Example 18] has a Kb [1] of 20 nM, a Kb [2] of 1400 nM and a Kb [3] of 40 nM.
In the case of `CC1(COc2ccc(Br)cc2Cn2ncc3cc(C(=O)O)ccc32)CC1` [Example 19], the Kb [1] is reported as 16 nM, the Kb [2] is reported as 1200 nM and the Kb [3] is reported as 12 nM.
For `CC(C)COc1ccc(OC(F)(F)F)cc1Cn1ncc2cc(C(=O)O)ccc21` [Example 20, 1-(2-Isobutoxy-5-Trifluoromethoxy-Benzyl)-1H-Indazole-5-Carboxylic Acid], the Kb [1] was 13 nM, the Kb [2] was 500 nM and the Kb [3] was 30 nM.
With `Cc1nn(Cc2cc(Br)ccc2OCC(C)C)c2ccc(C(=O)O)cc12` [Example 21, 1-(5-Bromo-2-Isobutoxy-Benzyl)-3-Methyl-1H-Indazole-5-Carboxylic Acid] the Kb [1] was 30 nM, the Kb [2] was 100 nM and the Kb [3] was 14 nM.
`Cc1nn(Cc2cc(OC(F)(F)F)ccc2OCC(C)C)c2ccc(C(=O)O)cc12` [Example 22, 1-(2-Isobutoxy-5-Trifluoromethoxy-Benzyl)-3-Methyl-1H-Indazole-5-Carboxylic Acid] gave a Kb [1] of 140 nM, a Kb [2] of 1700 nM and a Kb [3] of 16 nM.
With `CCC(CC)COc1ccc(Cl)cc1Cn1nc(C)c2cc(C(=O)O)ccc21` [Example 23, 1-[5-Chloro-2-(2-Ethyl-Butoxy)-Benzyl]-3-Methyl-1H-Indazole-5-Carboxylic Acid] the Kb [1] was 170 nM, the Kb [2] was 900 nM and the Kb [3] was 30 nM.
Work on `Cc1nn(Cc2cc(Cl)ccc2OCC(C)C)c2ccc(C(=O)O)cc12` [Example 24, 1-(5-Chloro-2-Isobutoxy-Benzyl)-3-Methyl-1H-Indazole-5-Carboxylic Acid] yielded a Kb [1] of 40 nM, a Kb [2] of 160 nM and a Kb [3] of 20 nM.
For `Cc1nn(Cc2cc(C(F)(F)F)ccc2OCC(C)C)c2ccc(C(=O)O)cc12` [Example 25, 1-(2-Isobutoxy-5-Trifluoromethyl-Benzyl)-3-Methyl-1H-Indazole-5-Carboxylic Acid], the Kb [1] was 180 nM, the Kb [2] was 220 nM and the Kb [3] was 27 nM.
`CCC(CC)COc1ccc(C(F)(F)F)cc1Cn1nc(C)c2cc(C(=O)O)ccc21` [Example 26, 1-[2-(2-Ethyl-Butoxy)-5-Trifluoromethyl-Benzyl]-3-Methyl-1H-Indazole-5-Carboxylic Acid] gave a Kb [1] of 500 nM, a Kb [2] of 1700 nM and a Kb [3] of 80 nM.
